This is an account of results in publication PMC9859815 (Scientific Reports, 2023).

Data set [1] can be described thus: Single-dose, 2-sequence, 2-period crossover pharmacokinetic/bioequivalence study, fasting oral administration, healthy Chinese subjects (also by CYP2C19 phenotype and gender). The format is in vivo. The conditions noted are these: human, plasma, mean ± SD. Here is the method:
Forty subjects were randomly divided into two groups, with 20 patients in each group. […] The subjects in each group fasted after 21:00 the night before administration. […] The blood samples were centrifuged at 1700 g (4 °C) for 10 min within 1 h of collection. The centrifuged plasma was immediately aliquoted into 2 tubes with corresponding labels (1 for testing, 1 for backup, the volume of plasma in each tube should not be less than 500 µL) and stored at […] until analysis. The total time from whole blood collection to centrifugation to separate plasma and then stored in […] refrigerator should not exceed 2 h.
The sample pretreatment method was the protein precipitation method.
Terminal elimination rate constant λz and the apparent terminal elimination half-life (T1/2) were also needed. AUC0–∞ (the AUC from time 0 to infinity) used the formula: AUC0–∞ = AUC0–t + Ct/λ(T1/2 = 0.693/λz) to calculate.
SAS 9.4 software was used for statistical analysis.

For data set [2] the following is noted: cited from earlier work.
The conditions of data set [3]: Pakistani, cited from earlier work.

Each structure is given as a SMILES string. Where two headings read alike, the source gives them in different places.

Broadly, the AUC(0-t) is the area under the concentration-time curve up to a stated or last time point. By half-life is commonly meant how long it takes for the measured level to halve. Usually Cmax stands for the maximum level reached in the sampled fluid or tissue. With `COc1ccc2[nH]c([S+]([O-])Cc3ncc(C)c(OC)c3C)nc2c1` (centres unmarked) [omeprazole], the AUC(0-t) in data set [1] (CYP2C19 EM (N = 12)) was determined as 553 ± 391 ng·h/mL. In data set [1] (CYP2C19 PM (N = 4)), the half-life was 2.48 ± 0.24 h. Moreover, the Cmax in data set [2] (CYP2C19 EM, Caucasians) was 285 ± 82.9 ng/mL; in data set [2] (CYP2C19 EM, Japanese), 251.1 ± 46.2 ng/mL; in data set [2] (CYP2C19 EM, West Asians), 152.4 ± 9.94 ng/mL; in data set [2] (CYP2C19 PM, East Asians (so in the source)), 538.6 ± 33.5 ng/mL; in data set [2] (CYP2C19 PM, Japanese), 1070.2 ± 185.3 ng/mL; in data set [3] (females) it was 2913 ± 610 ng/mL. The Cmax in data set [3] (males) was 2006 ± 980 ng/mL. In addition, the T1/2 in data set [2] (CYP2C19 EM, Caucasians) was 0.71 ± 0.1 h; in data set [2] (CYP2C19 EM, West Asians), 0.9 ± 0.01 h; in data set [2] (CYP2C19 PM, Caucasians), 2.68 ± 0.3 h; in data set [2] (CYP2C19 PM, Japanese), 2.41 ± 0.15 h; in data set [2] (CYP2C19 PM, West Asians) it was 2.42 ± 0.18 h. The “AUC0–t” value was 618.3 ± 141.9 ng·h/mL in data set [2] (CYP2C19 EM, Japanese); 713.49 ± 555.56 ng·h/mL in data set [2] (CYP2C19 EM, Korean); 250.5 ± 16.1 ng·h/mL in data set [2] (CYP2C19 EM, West Asian); 635.5 ± 259.7 ng·h/mL in data set [2] (CYP2C19 EM, Whites); 8740 ± 2230 ng·h/mL in data set [3] (females); 6670 ± 4320 ng·h/mL in data set [3] (males).
